Reference: patent US9758524B2, “4-imidazopyridazin-1-yl-benzamides as Btk inhibitors” (Merck Sharp & Dohme B.V., priority 2011, dated 2017)
Like-named read-outs stand apart in the source and are kept apart here.

Columns and labels:
Btk enzyme (His-Btk) = Btk enzyme (His-Btk) (Homo sapiens (Human), UniProt Q06187); experiment: Btk enzyme activity (IMAP fluorescence polarization assay)
FynT enzyme = FynT enzyme (Homo sapiens (Human), UniProt P06241); experiment: FynT enzyme activity (IMAP fluorescence polarization assay); format: biochemical; details: 60 min pre-incubation, 0.2 μM ATP
Experimental: FynT enzyme activity is measured using the IMAP (immobilized metal ion affinity-based fluorescence polarization) assay as outlined below.
Test compounds and FynT enzyme are pre-incubated 60 minutes at room temperature, before adding 5 μL/well of 400 nM Fluorescin labeled substrate peptide (p34cdc2 substrate peptide, e.g. #R7157/#R7172, Molecular Devices) in KR-buffer. Final peptide substrate concentration in assay is 100 nM. […] Following incubation for 2 h at room temperature the enzyme reaction is stopped by adding 40 μL/well IMAP Progressive Binding Solution (according to suppliers (Molecular Devices) protocol using 75% 1× buffer A and 25% 1× buffer B with 1:600 Progressive Binding Solution). After 60 min incubation at room temperature in the dark the FP signal is read. […] Values are calculated as percentage of the difference in readout (ΔmPi) of the controls with and without ATP. EC50 values are determined by curve fitting of the experimental results using Activity Base.

Lyn enzyme = Lyn enzyme (Homo sapiens (Human), UniProt P07948); experiment: Lyn enzyme activity (IMAP fluorescence polarization assay)
Lck enzyme = Lck enzyme (Homo sapiens (Human), UniProt P06239); experiment: Lck enzyme activity (IMAP fluorescence polarization assay)
Src enzyme = Src enzyme (Homo sapiens (Human), UniProt P12931); experiment: Src enzyme activity (IMAP fluorescence polarization assay)
[1] = read-out: EC50 Btk activity values, IMAP, 60 min pre-incubation, 5 μM ATP, bin bound in nM
[2] = read-out: EC50 Lyn activity values, 60 min pre-incubation, 2 μM ATP, bin bound in μM
[3] = read-out: EC50 Lck activity values, IMAP, 60 min pre-incubation, 6 μM ATP, bin bound in μM
[4] = read-out: EC50 Src activity values, IMAP, 60 min pre-incubation, 4 μM ATP
[5] = EC50 Lyn activity values, 60 min pre-incubation, 2 μM ATP, bin bound in μM
[6] = IMAP, 60 min pre-incubation, 5 μM ATP, bin bound in nM

Sequence of Btk enzyme (His-Btk) (Q06187 whole entry): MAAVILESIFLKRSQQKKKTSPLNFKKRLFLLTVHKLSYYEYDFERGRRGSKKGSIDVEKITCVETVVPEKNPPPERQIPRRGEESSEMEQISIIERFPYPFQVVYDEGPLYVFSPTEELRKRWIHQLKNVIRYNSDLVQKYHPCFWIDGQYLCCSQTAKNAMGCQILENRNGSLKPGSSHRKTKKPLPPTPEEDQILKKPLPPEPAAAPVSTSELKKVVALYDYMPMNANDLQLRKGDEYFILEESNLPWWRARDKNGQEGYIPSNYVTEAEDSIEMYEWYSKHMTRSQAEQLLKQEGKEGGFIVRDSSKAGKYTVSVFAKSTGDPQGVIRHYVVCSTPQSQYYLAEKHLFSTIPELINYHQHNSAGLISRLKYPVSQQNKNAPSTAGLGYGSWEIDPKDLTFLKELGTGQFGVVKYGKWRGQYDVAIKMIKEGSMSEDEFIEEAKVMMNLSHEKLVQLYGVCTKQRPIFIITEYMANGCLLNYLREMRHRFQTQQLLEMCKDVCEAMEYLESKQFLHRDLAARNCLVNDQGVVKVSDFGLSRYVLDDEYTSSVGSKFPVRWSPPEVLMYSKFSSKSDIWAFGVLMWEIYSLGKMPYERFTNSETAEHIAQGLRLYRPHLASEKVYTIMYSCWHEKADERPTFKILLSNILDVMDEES
Sequence of Src enzyme (P12931 whole entry, looked up): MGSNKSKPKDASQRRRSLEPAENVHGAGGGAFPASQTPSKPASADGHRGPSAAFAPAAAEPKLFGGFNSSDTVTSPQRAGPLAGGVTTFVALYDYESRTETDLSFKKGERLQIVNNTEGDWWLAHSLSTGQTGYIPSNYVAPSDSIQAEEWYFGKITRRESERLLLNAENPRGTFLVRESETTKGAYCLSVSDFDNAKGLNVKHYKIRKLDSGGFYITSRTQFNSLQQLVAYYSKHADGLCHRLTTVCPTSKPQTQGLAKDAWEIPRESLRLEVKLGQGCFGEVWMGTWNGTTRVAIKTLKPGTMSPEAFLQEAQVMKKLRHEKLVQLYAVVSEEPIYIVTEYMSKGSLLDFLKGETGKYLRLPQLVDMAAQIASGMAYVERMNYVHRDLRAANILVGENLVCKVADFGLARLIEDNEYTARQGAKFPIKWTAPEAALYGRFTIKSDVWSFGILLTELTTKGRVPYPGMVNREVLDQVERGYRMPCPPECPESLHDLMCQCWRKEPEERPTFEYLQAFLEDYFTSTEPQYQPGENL
Sequence of Lyn enzyme (P07948 whole entry): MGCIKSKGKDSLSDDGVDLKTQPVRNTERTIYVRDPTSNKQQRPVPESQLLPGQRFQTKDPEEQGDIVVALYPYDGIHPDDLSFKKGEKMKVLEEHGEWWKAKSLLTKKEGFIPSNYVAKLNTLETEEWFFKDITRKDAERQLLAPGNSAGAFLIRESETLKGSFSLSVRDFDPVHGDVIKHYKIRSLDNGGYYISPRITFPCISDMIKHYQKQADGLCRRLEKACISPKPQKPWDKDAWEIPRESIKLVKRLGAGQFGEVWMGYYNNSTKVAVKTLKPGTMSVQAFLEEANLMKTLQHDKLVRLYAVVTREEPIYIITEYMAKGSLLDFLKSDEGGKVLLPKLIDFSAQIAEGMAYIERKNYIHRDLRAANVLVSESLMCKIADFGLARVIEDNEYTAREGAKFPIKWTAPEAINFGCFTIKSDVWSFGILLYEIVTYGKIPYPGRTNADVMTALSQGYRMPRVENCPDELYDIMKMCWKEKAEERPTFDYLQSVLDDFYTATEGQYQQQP
Sequence of FynT enzyme (P06241 other isoform, or with tags, fused parts or gaps): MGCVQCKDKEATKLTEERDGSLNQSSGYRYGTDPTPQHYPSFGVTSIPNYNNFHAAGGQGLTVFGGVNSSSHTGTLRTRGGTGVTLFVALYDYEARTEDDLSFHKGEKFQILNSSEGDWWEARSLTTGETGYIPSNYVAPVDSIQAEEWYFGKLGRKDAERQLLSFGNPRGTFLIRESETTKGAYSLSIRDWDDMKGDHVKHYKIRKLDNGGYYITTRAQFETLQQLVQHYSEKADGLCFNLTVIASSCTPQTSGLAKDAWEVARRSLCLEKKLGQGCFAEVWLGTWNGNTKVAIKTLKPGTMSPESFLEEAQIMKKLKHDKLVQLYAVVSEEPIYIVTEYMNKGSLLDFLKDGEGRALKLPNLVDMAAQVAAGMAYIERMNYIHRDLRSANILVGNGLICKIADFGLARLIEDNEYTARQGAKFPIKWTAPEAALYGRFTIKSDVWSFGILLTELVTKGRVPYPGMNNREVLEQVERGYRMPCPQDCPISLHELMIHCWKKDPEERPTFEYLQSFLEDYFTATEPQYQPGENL
Sequence of Lck enzyme (P06239 whole entry): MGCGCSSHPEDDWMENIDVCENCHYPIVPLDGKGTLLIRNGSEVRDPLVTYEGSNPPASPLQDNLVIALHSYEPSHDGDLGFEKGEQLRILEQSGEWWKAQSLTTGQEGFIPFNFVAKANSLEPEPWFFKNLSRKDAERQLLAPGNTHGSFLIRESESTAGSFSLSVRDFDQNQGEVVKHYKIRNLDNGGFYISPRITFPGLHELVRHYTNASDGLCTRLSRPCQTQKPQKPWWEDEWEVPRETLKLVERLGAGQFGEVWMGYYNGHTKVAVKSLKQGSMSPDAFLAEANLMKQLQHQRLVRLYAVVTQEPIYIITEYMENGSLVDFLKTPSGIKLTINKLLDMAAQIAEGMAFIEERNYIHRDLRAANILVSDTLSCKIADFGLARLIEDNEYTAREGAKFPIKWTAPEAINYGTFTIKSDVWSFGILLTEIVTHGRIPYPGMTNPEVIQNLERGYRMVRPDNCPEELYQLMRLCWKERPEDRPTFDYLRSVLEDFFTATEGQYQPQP

Structure (SMILES) | EC50 (Btk enzyme (His-Btk); [1]) [nM] | EC50 (FynT enzyme) [nM] | EC50 (Lyn enzyme; [2]) [µM] | EC50 (Lck enzyme; [3]) [µM] | EC50 (Src enzyme; [4]) [nM] | EC50 (Btk enzyme (His-Btk)) [nM] | EC50 Btk activity values (Btk enzyme (His-Btk); [6]) [nM] | EC50 Lyn activity values (Lyn enzyme; 60 min pre-incubation, 2 μM ATP, bin bound in μM) [µM] | EC50 (Lyn enzyme; EC50 Lyn activity values, 60 min pre-incubation, 2 μM ATP, bin bound in nM) [µM] | EC50 Lck activity values (Lck enzyme; IMAP, 60 min pre-incubation, 6 μM ATP, bin bound in μM) [µM] | EC50 (Lyn enzyme; [5]) [µM] | EC50 (Lck enzyme) [µM] | EC50 (Src enzyme) [nM]
CC#CC(=O)N1CCOC[C@H]1c1nc(-c2ccc(C(=O)Nc3ccccn3)cc2)c2c(N)nccn12 [Example 38, (R)-4-(8-Amino-3-(4-but-2-ynoylmorpholin-3-yl)imidazo[1,5-a]pyrazin-1-yl)-N-(pyridin-2-yl)benzamide] | < 10 | ≥ 1000 | ≥ 1 | ≥ 1 | ≥ 1000 | – | – | – | – | – | – | – | –
CC#CC(=O)N(C)[C@@H](C)c1nc(-c2ccc(C(=O)Nc3cc(C(F)(F)F)ccn3)cc2)c2c(N)nccn12 [Example 39, (S)-4-(8-amino-3-(1-(N-methylbut-2-ynamido)ethyl)imidazo[1,5-a]pyrazin-1-yl)-N-(4-(trifluoromethyl)pyridin-2-yl)benzamide] | < 10 | ≥ 1000 | ≥ 1 | ≥ 1 | ≥ 1000 | – | – | – | – | – | – | – | –
CC#CC(=O)N1CCCC[C@H]1c1nc(-c2ccc(C(=O)Nc3ccccn3)cc2C)c2c(N)nccn12 [Example 28, 4-(8-Amino-3-((S)-1-but-2-ynoylpiperidin-2-yl)imidazo[1,5-a]pyrazin-1-yl)-3-methyl-N-(pyridin-2-yl)benzamide] | < 10 | ≥ 1000 | ≥ 1 | ≥ 1 | ≥ 1000 | – | – | – | – | – | – | – | –
CCCC#CC(=O)N1CCC[C@H]1c1nc(-c2ccc(C(=O)Nc3ccccn3)cc2)c2c(N)nccn12 [Example 36, (S)-4-(8-Amino-3-(1-hex-2-ynoylpyrrolidin-2-yl)imidazo[1,5-a]pyrazin-1-yl)-N-(pyridin-2-yl)benzamide] | < 10 | ≥ 1000 | ≥ 1 | ≥ 1 | ≥ 1000 | – | – | – | – | – | – | – | –
CN(C)C/C=C/C(=O)N1CCC[C@H]1c1nc(-c2ccc(C(=O)Nc3nccs3)cc2)c2c(N)nccn12 [Example 15, (S,E)-4-(8-Amino-3-(1-(4-(dimethylamino)but-2-enoyl)pyrrolidin-2-yl)imidazo[1,5-a]pyrazin-1-yl)-N-(thiazol-2-yl)benzamide] | < 10 | ≥ 1000 | ≥ 1 | ≥ 1 | ≥ 1000 | – | – | – | – | – | – | – | –
CC#CC(=O)N[C@@H](C)c1nc(-c2ccc(C(=O)Nc3ccccn3)cc2)c2c(N)nccn12 [Example 30, (S)-4-(8-Amino-3-(1-but-2-ynamidoethyl)imidazo[1,5-a]pyrazin-1-yl)-N-(pyridin-2-yl)benzamide] | < 10 | ≥ 1000 | ≥ 1 | ≥ 1 | ≥ 1000 | – | – | – | – | – | – | – | –
C=CC(=O)N1CCCCCC1c1nc(-c2ccc(C(=O)Nc3ccccn3)cc2)c2c(N)nccn12 (stereo not drawn) [Example 37, 4-(3-(1-Acrloylazepan-2-yl)-8-aminoimidazo[1,5-a]pyrazin-1-yl)-N-(pyridin-2-yl)benzamide] | < 10 | ≥ 1000 | ≥ 1 | ≥ 1 | ≥ 1000 | – | – | – | – | – | – | – | –
C/C=C/C(=O)N1CCC[C@H]1c1nc(-c2ccc(C(=O)Nc3ccccn3)cc2)c2c(N)nccn12 [Example 93, (S,E)-4-(8-amino-3-(1-but-2-enoylpyrrolidin-2-yl)imidazo[1,5-a]pyrazin-1-yl)-N-(pyridin-2-yl)benzamide] | – | ≥ 1000 | ≥ 1 | – | ≥ 1000 | – | – | – | – | – | – | ≥ 1 | –
CC#CC(=O)N1CCC[C@H]1c1nc(-c2ccc(C(=O)Nc3ccccn3)cc2)c2c(N)nccn12 [Example 6, (S)-4-(8-amino-3-(1-but-2-ynoylpyrrolidin-2-yl)imidazo[1,5-a]pyrazin-1-yl)-N-(pyridin-2-yl)benzamide] | – | ≥ 1000 | – | – | – | – | – | – | – | – | ≥ 1 | ≥ 1 | ≥ 1000
CN(C)C/C=C/C(=O)N1CCC[C@H]1c1nc(-c2ccc(C(=O)Nc3ccccn3)cc2)c2c(N)nccn12 [Example 3, (S,E)-4-(8-Amino-3-(1-(4-(dimethylamino)but-2-enoyl)pyrrolidin-2-yl)imidazo[1,5-a]pyrazin-1-yl)-N-(pyridin-2-yl)benzamide] | < 10 | – | – | – | – | – | – | – | – | – | – | – | –

The next lines start with results.

EC50 (Btk enzyme (His-Btk); [1]) [nM] | EC50 (FynT enzyme) [nM] | EC50 (Lyn enzyme; [2]) [µM] | EC50 (Lck enzyme; [3]) [µM] | EC50 (Src enzyme; [4]) [nM] | EC50 (Btk enzyme (His-Btk)) [nM] | EC50 Btk activity values (Btk enzyme (His-Btk); [6]) [nM] | EC50 Lyn activity values (Lyn enzyme; 60 min pre-incubation, 2 μM ATP, bin bound in μM) [µM] | EC50 (Lyn enzyme; EC50 Lyn activity values, 60 min pre-incubation, 2 μM ATP, bin bound in nM) [µM] | EC50 Lck activity values (Lck enzyme; IMAP, 60 min pre-incubation, 6 μM ATP, bin bound in μM) [µM] | Structure (SMILES) | EC50 (Lyn enzyme; [5]) [µM] | EC50 (Lck enzyme) [µM] | EC50 (Src enzyme) [nM]
< 10 | ≥ 1000 | ≥ 1 | ≥ 1 | ≥ 1000 | – | – | – | – | – | C=CC(=O)N1CCCC[C@H]1c1nc(-c2ccc(C(=O)Nc3ncc(CC)s3)cc2)c2c(N)nccn12 [Example 117, (S)-4-(3-(1-acryloylpiperidin-2-yl)-8-aminoimidazo[1,5-a]pyrazin-1-yl)-N-(5-ethylthiazol-2-yl)benzamide] | – | – | –
< 10 | ≥ 1000 | – | ≥ 1 | ≥ 1000 | – | – | – | – | – | COC/C=C/C(=O)N1CCCC[C@H]1c1nc(-c2ccc(C(=O)Nc3cc(C(F)(F)F)ccn3)cc2)c2c(N)nccn12 [Example 108, (S,E)-4-(8-amino-3-(1-(4-methoxybut-2-enoyl)piperidin-2-yl)imidazo[1,5-a]pyrazin-1-yl)-N-(4-(trifluoromethyl)pyridin-2-yl)benzamide] | ≥ 1 | – | –
– | ≥ 1000 | ≥ 1 | ≥ 1 | ≥ 1000 | 10 to 100 | <100 | – | – | – | CC#CC(=O)N1CCC[C@H]1c1nc(-c2ccc(C(=O)Nc3cc(N4CCCC4)ccn3)cc2)c2c(N)nccn12 [Example 96, (S)-4-(8-amino-3-(1-but-2-ynoylpyrrolidin-2-yl)imidazo[1,5-a]pyrazin-1-yl)-N-(4-(pyrrolidin-1-yl)pyridin-2-yl)benzamide] | – | – | –
< 10 | ≥ 1000 | ≥ 1 | ≥ 1 | ≥ 1000 | – | – | – | – | – | C=CC(=O)N1CCCC[C@H]1c1nc(-c2ccc(C(=O)Nc3cc(C(F)(F)F)ccn3)cc2)c2c(N)nccn12 [Example 109, (S)-4-(3-(1-acryloylpiperidin-2-yl)-8-aminoimidazo[1,5-a]pyrazin-1-yl)-N-(4-(trifluoromethyl)pyridin-2-yl)benzamide] | – | – | –
– | ≥ 1000 | ≥ 1 | ≥ 1 | ≥ 1000 | 10 to 100 | <100 | – | – | – | Nc1nccn2c([C@@H]3CCCN3C(=O)c3ccnc(Cl)n3)nc(-c3ccc(C(=O)Nc4cc(C(F)(F)F)ccn4)cc3)c12 [Example 119, (S)-4-(8-amino-3-(1-(2-chloropyrimidine-4-carbonyl)pyrrolidin-2-yl)imidazo[1,5-a]pyrazin-1-yl)-N-(4-(trifluoromethyl)pyridin-2-yl)benzamide] | – | – | –
– | ≥ 1000 | ≥ 1 | ≥ 1 | ≥ 1000 | 10 to 100 | <100 | – | – | – | COC/C=C/C(=O)N1CCC[C@H]1c1nc(-c2ccc(C(=O)Nc3cc(OC)ccn3)cc2)c2c(N)nccn12 [Example 51, (S,E)-4-(8-amino-3-(1-(4-methoxybut-2-enoyl)pyrrolidin-2-yl)imidazo[1,5-a]pyrazin-1-yl)-N-(4-methoxypyridin-2-yl)benzamide] | – | – | –
< 10 | ≥ 1000 | – | – | ≥ 1000 | – | – | <1 | 0.1 to 1 | <1 | C=CC(=O)N1CCC[C@H]1c1nc(-c2ccc(C(=O)Nc3cc(-c4ccccc4)ccn3)cc2)c2c(N)nccn12 [Example 133, (S)-4-(3-(1-acryloylpyrrolidin-2-yl)-8-aminoimidazo[1,5-a]pyrazin-1-yl)-N-(4-phenylpyridin-2-yl)benzamide] | – | 0.1 to 1 | –
– | ≥ 1000 | ≥ 1 | ≥ 1 | ≥ 1000 | 10 to 100 | <100 | – | – | – | COC/C=C/C(=O)N1CCC[C@H]1c1nc(-c2ccc(C(=O)Nc3nc4c(s3)CCCC4)cc2)c2c(N)nccn12 [Example 82, (S,E)-4-(8-amino-3-(1-(4-methoxybut-2-enoyl)pyrrolidin-2-yl)imidazo[1,5-a]pyrazin-1-yl)-N-(4,5,6,7-tetrahydrobenzo[d]thiazol-2-yl)benzamide] | – | – | –
< 10 | ≥ 1000 | ≥ 1 | ≥ 1 | ≥ 1000 | – | – | – | – | – | CC(C)c1ccnc(NC(=O)c2ccc(-c3nc([C@@H]4CCCN4C(=O)/C=C/CN(C)C)n4ccnc(N)c34)cc2)c1 [Example 65, (S,E)-4-(8-amino-3-(1-(4-(dimethylamino)but-2-enoyl)pyrrolidin-2-yl)imidazo[1,5-a]pyrazin-1-yl)-N-(4-isopropylpyridin-2-yl)benzamide] | – | – | –
– | ≥ 1000 | ≥ 1 | ≥ 1 | ≥ 1000 | – | – | – | – | – | CN(C)C/C=C/C(=O)N1CCC[C@H]1c1nc(-c2ccc(C(=O)Nc3ccccn3)cc2)c2c(N)nccn12 [Example 127, (S,E)-4-(8-amino-3-(1-(4-(dimethylamino)but-2-enoyl)pyrrolidin-2-yl)imidazo[1,5-a]pyrazin-1-yl)-N-(pyridin-2-yl)benzamide] | – | – | –
